According to patent US20200032271A1, “COMBINATION THERAPY WITH LIPOSOMAL ANTISENSE OLIGONUCLEOTIDES” (Bio-Path Holdings, Inc., priority 2016, published 2020):
Where “and” joins values, the source holds several entries; their conditions need not be identical. Identical values can stand only once. [PEt] = P-ethoxy (ethyl phosphotriester) internucleoside linkage

Columns and labels:
Grb2 [1] = test: Selective inhibition of Grb2 protein production (SDS-PAGE, blot) in BV173 and ALL-1 cells; type: cell-based, human; details: 4 to 8 μM, three days, Crk1 as control protein
Protocol: FIGS. 5A-B. Selective inhibition of the production of Grb2 proteins. […] After three days of culture, protein-containing layers were prepared and subjected to SDS-PAGE and transferred to nitrocellulose membranes. Blots were cut into sections and incubated with antibodies specific for Grb2 (target) or Crk1 (control) protein. BP1001 is a neutral liposome incorporated with the nuclease-resistant, hydrophobic P-ethoxy antisense oligos targeted to Grb2 mRNA.

[2] = Tissue distribution study in mice (32P-labeled BP1001); type: in vivo; details: mouse, 20 mg/kg i.v.
Protocol: Tissue distribution studies of BP1001 were conducted in mice following i.v. administration. Twenty mice (5/group) were divided into three test article groups and one control group. Test article groups were injected i.v. via the tail vein with radio-labeled (^32P) BP1001 at a dose of 20 mg of oligonucleotide per kg of body weight. Injected mice were euthanized by CO2 inhalation at 4, 24, and 48 hours following injection for organ harvest. Control animals were non-injected animals. Spleen, liver, kidney, heart, stomach, lung, and bone marrow tissue were collected from all animals, and tissue samples (50-100 mg) from each organ were weighed and processed. ^32P radioactivity was counted in a scintillation counter. Results were expressed as mean μg BP1001/g tissue. As expected, no radioactivity was detected in control animals. […] BP1001 accumulated in all tissues examined, with the highest accumulation in spleen, liver, and kidney tissue. At 4 h following injection, mean BP1001 tissue concentrations per g of tissue were: 64 μg (spleen), 50 μg (liver), 34 μg (kidney), and ranged from 12-34 μg in other tissues. […] A minimal amount of BP1001 (˜0.4 μg in two femurs) was detected in the bone marrow, where the concentration remained relatively constant for […].

Grb2 [3] = test: Flow cytometry of Grb2 levels in circulating leukemia cells of patients; type: in vivo, human; details: for Grb2 decrease (%) (Day 15) / Grb2 decrease (%) (Day 22 or end-of-treatment): individual subjects
Excerpt: (§1) Flow cytometry was used to determine the levels of Grb2 and pErk proteins in the circulating leukemia cells of patients who were on BP1001 single agent therapy, and were reported as median fluorescent intensity (MFI). MFI of Grb2 and pErk during treatment were compared to those at baseline.
(§2) Peripheral blood was collected from patients in cohorts 3, 4, 5, and 6, before being dosed on Cycle 1 days 1, 8, 15 and 22, and Cycle 2 day 1. White blood cells were isolated from peripheral blood using BD Vacutainer CPT cell preparation tubes with sodium heparin (BD Dickinson), fixed and stored in −80° C. freezer. Flow cytometry was utilized to determine Grb2 and phosphorylated Erk1,2 (pErk) levels in CD33-expressing cells using a validated method (Flow Contract Site Laboratory, Bothell, Wash., USA).
as §1, with “utilized” for “used”, “baseline (Table 7).” for “baseline.”

[4] = tested on: phosphorylated Erk1,2 (pErk); test: Flow cytometry of pErk levels in circulating leukemia cells of patients; type: in vivo, human; details: for pErk decrease (%) (Day 15) / pErk decrease (%) (Day 22 or end-of-treatment): individual subjects
Excerpt: as §1, §2
as §1, with “utilized” for “used”, “baseline (Table 7).” for “baseline.”

[5] = Plasma pharmacokinetics of Grb2 antisense oligo in patients; details: human, in vivo
Protocol: Pharmacokinetic (PK) analysis was performed on plasma samples collected from refractory/relapsed patients diagnosed with AML receiving BP1001 (60 mg/m^2)+LDAC or receiving BP1001 (90 mg/m^2)+LDAC.
Blood samples for measurement of Grb2 antisense oligo concentrations were collected from patients in cohorts 7 and 8, at predose, 1, 2, 4, 6, 8, 24, 72 h post start-of-infusion (SOI). Urine samples for measurement of BP1001 concentrations were also collected from patients in cohorts 7 and 8, at start of dose-4 h, 4-8 h postdose, and 8-24 h postdose. PK blood samples were processed to plasma and analyzed using a validated method (Charles River Laboratories, Montreal, Canada) with a lower limit of quantitation (LLOQ; 0.5 ng/mL). Urine samples were analyzed using a validated method (Charles River Laboratories, Montreal, Canada) with a LLOQ of 1.00 ng/mL.
PK parameters were estimated using Phoenix pharmacokinetic software (Certara). A non-compartmental approach consistent with the IV infusion route of administration was used for parameter estimation, using an estimated infusion time of 2.5 h. All parameters were generated from Grb2 antisense oligo individual concentrations in plasma from Day 1 of Cycle 1, whenever practical. […] Parameters were estimated using nominal sampling times relative to the start of infusion. The area under the concentration vs. time curve (AUC) was calculated using the linear trapezoidal method with linear interpolation. The slope of the terminal elimination phase was determined using log linear regression on the unweighted concentration data.

[6] = rat, in vivo, iv
Protocol: Blood (0.3 mL) was collected through the right femoral artery at 5, 10, 20, 30, 60, 90, 120, 180, and 240 minutes following injection. After each withdrawal, the catheter was flushed with sodium heparin 1:1000 (Units/mL). Whole blood samples were extracted and assayed for ^32P radioactivity by liquid scintillation as previously described (Tani, 1998; Gutierrez-Puente, 1999). Pharmacokinetic parameters were determined by nonlinear regression analysis (Rstrip; Micro Math, Inc., Salt Lake City, Utah).

[7] = in vivo
Excerpt: Each participant who receives study drug will be closely monitored for AEs. An AE is any untoward medical occurrence associated with the use of a drug in humans, whether or not considered drug related. Adverse events include any signs, symptoms, illnesses, or diagnoses that appear or worsen during the course of the study. An AE may be an intercurrent illness, an injury, or any concomitant impairment of the participant's health. All AEs occurring at any time from the time of consent through the end of treatment visit will be reported regardless of the etiology of the event. The NCI's CTCAE v4.03 will be used for grading AEs.
The causal relationship to BP1001 IP or Das for all AEs will be assessed as follows: (1) definitely related—AEs clearly attributable to study regimen administration; (2) probably related—AEs for which there is a reasonable possibility of causal association to study regimen; (3) possibly related—AEs for which there is confounding by comorbidities, medications or other considerations but for which it is not unreasonable that the AE may have been caused by study regimen; or (4) not related—AEs that are considered clearly not causally related to study regimen, or for which there is a clear alternative explanation

[8] = Single-dose toxicity study in mice; details: mouse
Protocol: Fifteen female ICR mice (5/group) were assigned to a non-injected control group (Group IV) and two treatment groups (Groups V and VI) to receive 20 and 40 mg oligo/kg, respectively, intravenously via the tail vein as a single injection. Animals were observed daily and blood was collected for hematology and clinical chemistry evaluations at two and six weeks post injection. Animals were sacrificed following blood collection at six weeks post-injection and tissues collected for gross and microscopic evaluations of organ toxicity.

[9] = Multiple-dose toxicity study in mice; details: mouse
[10] = last measured sample (end of treatment or cycle 1 day 22), MFI vs baseline
[11] = 15 and 25 mg oligo/kg i.v. daily for five days

Substance: BP1001: liposome-incorporated P-ethoxy antisense oligodeoxynucleotide (5′-ATATTTGGCGATGGCTTC-3′, SEQ ID NO: 1) specific to grb2 mRNA, in neutral DOPC liposomes (DNA, all [PEt], methylation of C not given here; incorporated in neutral DOPC liposomes)
- Grb2 protein production (Grb2 [1]): selectively inhibit Grb2 protein production
- tissue half-life in lungs [2]: ~48 h
- tissue half-life in spleen, liver, kidney, heart and stomach [2]: approximately 24 h
- mean tissue concentration, kidney ([2]; 4 h): 34 μg/g tissue
- mean tissue concentration, liver ([2]; 4 h): 50 μg/g tissue
- mean tissue concentration, other tissues ([2]; 4 h): 12-34 μg/g tissue
- mean tissue concentration, spleen ([2]; 4 h): 64 μg/g tissue
- amount detected in bone marrow (two femurs) ([2]; relatively constant for 72 h): ~0.4 µg
- Grb2 decrease (%) (Day 15) (Grb2 [3]; cohort 3, 20 mg/m^2): 0% (2×) and 56%
- Grb2 decrease (%) (Day 22 or end-of-treatment) (Grb2 [3]; cohort 3, 20 mg/m^2): 28% and 47% and 57%
- Grb2 decrease (%) (Day 15) (Grb2 [3]; cohort 4, 40 mg/m^2): 63% and 47%
- Grb2 decrease (%) (Day 22 or end-of-treatment) (Grb2 [3]; cohort 4, 40 mg/m^2): 54% and 0% and 34%
- Grb2 decrease (%) (Day 15) (Grb2 [3]; cohort 5, 60 mg/m^2): 0% and 57% and 54%
- Grb2 decrease (%) (Day 22 or end-of-treatment) (Grb2 [3]; cohort 5, 60 mg/m^2): 30% and 65% and 43%
- Grb2 decrease (%) (Day 15) (Grb2 [3]; cohort 6, 90 mg/m^2): 0% and 85% and 63%
- Grb2 decrease (%) (Day 22 or end-of-treatment) (Grb2 [3]; cohort 6, 90 mg/m^2): 0% and 91% and 40%
- average decrease in Grb2 levels (Grb2 [3]; last measured sample): 49%
- samples with ≥25% decrease of Grb2 levels (Grb2 [3]; [10]): 10 out of 12
- pErk decrease (%) (Day 15) ([4]; cohort 3, 20 mg/m^2): 3% and 28% and 0%
- pErk decrease (%) (Day 22 or end-of-treatment) ([4]; cohort 3, 20 mg/m^2): 45% and 35% and 0%
- pErk decrease (%) (Day 15) ([4]; cohort 4, 40 mg/m^2): 82% and 0%
- pErk decrease (%) (Day 22 or end-of-treatment) ([4]; cohort 4, 40 mg/m^2): 91% and 0% and 27%
- pErk decrease (%) (Day 15) ([4]; cohort 5, 60 mg/m^2): 0% and 51% and 55%
- pErk decrease (%) (Day 22 or end-of-treatment) ([4]; cohort 5, 60 mg/m^2): 54% and 0% and 47%
- pErk decrease (%) (Day 15) ([4]; cohort 6, 90 mg/m^2): 0% and 54% and 42%
- pErk decrease (%) (Day 22 or end-of-treatment) ([4]; cohort 6, 90 mg/m^2): 0% (2×) and 63%
- average decrease in pErk levels ([4]; last measured sample): 52%
- samples with ≥25% decrease of pErk levels [4, 10]: 7 out of 12
- Tmax ([5]; 60 mg/m2): 1 h
- t1/2 ([5]; 60 mg/m2): 29.6 ± 8.1 h
- Tmax ([5]; 90 mg/m2): 1 h
- t1/2 ([5]; 90 mg/m2): 11.8 ± 5.4 h
- t1/2α (initial distribution phase) [6]: 5.16 ± 0.3 min
- Area under the concentration curve (AUC) ([6]; 10 mg/kg): 5.4 ± 0.9 mg·min/mL
- immediate apparent volume of distribution ([6]; 10 mg/kg): 36.42 ± 1.88 mL
- residence time ([6]; 10 mg/kg): 309.6 ± 21.5 min
- terminal phase half-life (t1/2β) ([6]; 10 mg/kg): 3.76 ± 0.22 h
- Infections and infestations ≥Grade 3, total events [7]: (9/9)
- Infections and infestations ≥Grade 3, total patients [7]: (9/9)
- WBC counts at six weeks post-injection ([8]; single i.v. 30 mg oligo/kg): Recovery
- group average WBC count at six weeks ([8]; single i.v. 40 mg oligo/kg, not statistically different than control): not fully recovered
- morbidity or mortality ([8]; single i.v. 15-40 mg oligo/kg, six weeks observation): No signs of morbidity or mortality
- drug-related lesions in examined organs ([8]; single i.v. 15-40 mg/kg): no drug-related lesions
- WBC count at two weeks post-injection ([8]; single i.v. 30 and 40 mg oligo/kg): Reduction
- WBC counts at two weeks post-injection, persisting at six weeks [9, 11]: Reduction
- morbidity or mortality [9, 11]: No signs of morbidity or mortality
- drug-related lesions in examined organs ([9]; multiple i.v. 15-25 mg/kg): no drug-related lesions
